The test system of one series is Panc265 model. The settings on record: cited from earlier work.
Series [1] is described as follows: Phase Ib study: adverse events, dose-limiting toxicities, MTD. Here is the method: The criteria for dose escalation were based on a modified toxicity probability method ([20]), using a statistical probability algorithm calculated with all patients treated at the same dose level. […] The study was conducted in accordance with legal and regulatory requirements and the Declaration of Helsinki. Prior to participant enrollment, the study was approved by the Institutional Review Board/Ethics Committee at each site at which it was conducted. Patients provided written informed consent before any study procedures were performed.

In the next series the test system is phospho-Rb (pRb). Nature of the series: pRb IHC in serial paired skin biopsy specimens. To be noted: skin biopsies. The class given is in vivo, human.
The next series deals with Ki67. Nature of the series: Ki67 IHC in serial paired skin biopsy specimens. The settings on record: skin biopsies. The class given is in vivo, human.
For series [2] the following is noted: human, in vivo.
Excerpt: (§1) Other outcomes included safety, pharmacokinetics, pharmacodynamics, tissue/blood biomarkers, objective tumor response, progression-free survival (PFS), and OS assessments.
The subject of series [3] is metastatic pancreatic cancer. To be noted: cited from earlier work; for Median OS: P < 0.001; for Efficacy in randomized clinical trials: patients with PDAC.
The conditions of series [4]: cited from earlier work.
In series [5] the test system is PDAC cell lines that retain RB1 expression. The arrangement: method as in PMID 29080858. The settings on record: cited from earlier work.
Series [6] can be described thus: Phase Ib study: plasma pharmacokinetics. The settings on record: steady state, overall population.
Excerpt: as §1
The subject of series [7] is cytochrome P450 (CYP) 2C8 and CYP3A4. More on the design: method as in earlier work. The settings on record: cited from earlier work.
The mark [8] stands for this setting: after 2 weeks of palbociclib treatment, first-line MTD group.
[9] abbreviates: after a further 2 weeks of palbociclib treatment.
The mark [10] stands for this setting: after the 1-week palbociclib break, before cycle 2.
The mark [11] stands for this setting: PALOMA-1, patients with breast cancer.
The mark [12] stands for this setting: PALOMA-2, patients with breast cancer.

Where two headings read alike, the source gives them in different places.

Turning to `CCc1cnn2c(NCc3ccc[n+]([O-])c3)cc(N3CCCC[C@H]3CCO)nc12` [dinaciclib], the “Sensitivity of Panc265 model” value in the series with Panc265 model is “sensitive”.
Take `CC(=O)c1c(C)c2cnc(Nc3ccc(N4CCNCC4)cn3)nc2n(C2CCCC2)c1=O` [palbociclib]: in series [1] (all patients), the “Permanent discontinuation of palbociclib due to bacterial gastritis” value is reported as 1.3%, the “Permanent discontinuation of palbociclib due to infection” value was 1.3% and the “Permanent discontinuation of palbociclib due to sepsis” value was determined as 1.3%. Besides, the MTD of palbociclib in series [1] (for 21 of every 28 days, with nab-paclitaxel) was 100 mg. The pRb level entry in the series on phospho-Rb (pRb) (setting [8]) was “decreased”. In the series with phospho-Rb (pRb) (setting [9]), the pRb level result is given as “decreased again to below baseline”. Besides, the pRb level result with phospho-Rb (pRb) (setting [10]) is on record as “rebounded to baseline or higher levels”. The Ki67 level entry in the series on Ki67 (setting [8]) is given as “decreased”. Besides, the Ki67 level entry in the series on Ki67 (setting [9]) was “decreased again to below baseline”. In addition, the Ki67 level result in the series on Ki67 (setting [10]) is given as “rebounded to baseline or higher levels”. In addition, in series [2], the “CL/F, geometric mean” value was 79.95 L/h; the “CL/F, median” value was found to be 74.10 L/h; the “Ctrough, geometric mean” value was 34.89 ng/mL; the “Ctrough, median” value turned out to be 34.60 ng/mL. The “tmax, median” value in series [2] is 4.17 h. In addition, in series [3] (CDKN2A-mutated advanced pancreatic cancer), the Clinical activity result was “did not have meaningful clinical activity”. For the same molecule, in series [4] (setting [11]), the AUCτ was 1,933 ng·hour/mL and the Cmax was 108 ng/mL. In series [4] (setting [12]), the AUCτ is 1,992 ng·hour/mL and the peak concentration (Cmax) was 110 ng/mL. Further, the “Effect on PDAC cell lines” value in series [5] is “induces cell-cycle arrest and apoptosis”. Also, in [6], the “Dose-normalized geometric mean AUCτ” value is listed as 1,569 ng·hour/mL and the “Dose-normalized geometric mean Cmax” value was 90.44 ng/mL.
`CC(=O)O[C@H]1C(=O)[C@@]2(C)[C@H]([C@H](OC(=O)c3ccccc3)[C@]3(O)C[C@H](OC(=O)[C@H](O)[C@@H](NC(=O)c4ccccc4)c4ccccc4)C(C)=C1C3(C)C)[C@]1(OC(C)=O)CO[C@@H]1C[C@@H]2O` [Paclitaxel]: the Metabolizing enzymes entry in series [7] is “metabolized primarily by cytochrome P450 (CYP) 2C8 and CYP3A4”.
In the case of FOLFIRINOX, in series [3] (FOLFIRINOX versus gemcitabine), the “Median OS” value is given as 11.1 months.
Turning to `Nc1ccn([C@@H]2O[C@H](CO)[C@@H](O)C2(F)F)c(=O)n1` [gemcitabine], the “Median OS” value is reported as 6.8 months in series [3] (FOLFIRINOX versus gemcitabine) and 6.7 months in [3] (GA versus gemcitabine alone, metastatic pancreatic cancer).

B1: pegilodecakin: agent not efficacious in randomized clinical trials in PDAC (protein, UniProt P22301 19-178, looked up)
Interleukin-10: SPGQGTQSENSCTHFPGNLPNMLRDLRDAFSRVKTFFQMKDQLDNLLLKESLLEDFKGYLGCQALSEMIQFYLEEVMPQAENQDPDIKAHVNSLGENLKTLRLRLRRCHRFLPCENKSKAVEQVKNAFNKLQEKGIYKAMSEFDIFINYIEAYMTMKIRN
modifications: PEGylated
For the molecule B1, the “Efficacy in randomized clinical trials” value in series [3] is listed as “not efficacious”.

B2: PEGPH20: agent not efficacious in randomized clinical trials in PDAC (protein, UniProt P38567 36-490, looked up)
Hyaluronidase PH-20: LNFRAPPVIPNVPFLWAWNAPSEFCLGKFDEPLDMSLFSFIGSPRINATGQGVTIFYVDRLGYYPYIDSITGVTVNGGIPQKISLQDHLDKAKKDITFYMPVDNLGMAVIDWEEWRPTWARNWKPKDVYKNRSIELVQQQNVQLSLTEATEKAKQEFEKAGKDFLVETIKLGKLLRPNHLWGYYLFPDCYNHHYKKPGYNGSCFNVEIKRNDDLSWLWNESTALYPSIYLNTQQSPVAATLYVRNRVREAIRVSKIPDAKSPLPVFAYTRIVFTDQVLKFLSQDELVYTFGETVALGASGIVIWGTLSIMRSMKSCLLLDNYMETILNPYIINVTLAAKMCSQVLCQEQGVCIRKNWNSSDYLHLNPDNFAIQLEKGGKFTVRGKPTLEDLEQFSEKFYCSCYSTLSCKEKADVKDTDAVDVCIADGVCIDAFLKPPMETEEPQIFYNASPSTLS
modifications: PEGylated; pegvorhyaluronidase alfa
B2: the “Efficacy in randomized clinical trials” value in series [3] was “not efficacious”.

The values are drawn from publication PMC10035387 (Cancer Research Communications, 2022).
